Results taken from patent US9034863B2, “Compositions and methods for inhibiting entry of a hepatic virus” (The Board of Trustees of the University of Illinois, priority 2008, dated 2015).
Entries after “also recorded” stand apart in the source; their conditions may differ.

Columns and labels:
[1] = tested on: HCV genotype 2a subgenomic replicon; experiment: HCV sg2a replicon RNA replication in Huh7 cells, RT-qPCR; assay type: cell-based, Hepatitis C virus (HCV); conditions: 72 hours post-treatment
From the text: Huh7 cells, also known as Huh7/scr cells, are well-known in the art (Zhong, et al. (2005) Proc. Natl. Acad. Sci. USA 102, 9294-99; Gastaminza, et al. (2006) J. Virol. 80:11074-81; Zhong, et al. (2006) J. Virol. 80:11082-93; Sainz et al. (2009) PLoS ONE 4:e6561). […] The HCV sg2a replicon was established as previously described (Uprichard, et al. (2006) Virol. J. 3:89). Briefly the HCV genotype 2a subgenomic replicon RNA (psgJFH1; Kato, et al. (2003) Gastroenterology 125:1808-17) was XbaI linearized, in vitro transcribed using […] T7 (Ambion, Austin, Tex.) and transfected into cells using a modified electroporation protocol (Krieger, et al. (2001) J. Virol. 75(10):4614-24). All cells were cultured in complete Dulbecco's modified Eagle's medium (cDMEM) (Hyclone, Logan, Utah) supplemented with 10% fetal bovine serum (FBS) (Hyclone), 100 units/ml penicillin, […] streptomycin, and 2 mM L-glutamine (Gibco Invitrogen, Carlsbad, Calif.) and 500 μg/ml geneticin ((Invitrogen) for HCV replicon cells only).
Total cellular RNA was purified using an ABI PRISM™ 6100 Nucleic Acid PrepStation (Applied Biosystems), as per the manufacturer's instructions. […] HCV JFH-1 and human GAPDH RNA transcript levels were determined relative to a standard curve derived from serial dilutions of plasmid containing the JFH-1 HCV cDNA or the human GAPDH coding sequence, respectively. […]

HCV-JFH-1 = experiment: Chronic HCV-JFH-1 infection of Huh7-1 cells, inhibitor combinations, RT-qPCR 24-96 h (FIG. 3-5); assay type: cell-based, Hepatitis C virus (HCV)
Method: RT-qPCR analysis of intracellular HCV RNA levels in Huh7 cultures mock-treated, treated with ezetimibe (30 μM), PI (200 nM), IFN-α (100 U/ml), or indicated combinations thereof (n=3). Data presented are representative of multiple independent experiments.
FIG. 4A, Chronically infected Huh7-1 cell cultures (n=3) treated with ezetimibe (E), naringenin (N), interferon α (I), or combinations thereof, were harvested at 24, 48, 72 or 96 hours post-treatment, intracellular HCV levels were quantified by RT-qPCR, and are presented as HCV copies/μg RNA. FIG. 4B, Chronically infected Huh7-1 cell cultures (n=3) treated with ezetimibe (E), ferristatin (T), interferon α (I), or combinations thereof, were harvested at 24, 48, 72 or 96 hours post-treatment, intracellular HCV levels were quantified by RT-qPCR, and are presented as HCV copies/μg RNA.
Shown are the results of RT-qPCR analysis of intracellular HCV RNA levels in Huh7 cultures mock-treated, treated with ezetimibe (30 μM), polymerase inhibitor, RG7128 (1 μM), or a combination thereof (n=3).
For experiments analyzing the activity of ezetimibe in combination with a protease inhibitor, Huh7-1 cells were infected with HCV-JFH-1 and allowed to reach steady state levels of infection. The HCV-infected cells were seeded in a 96-well plate and treated with the following: medium alone, 30 μM ezetimibe, 200 nM ITMN5537, 100 μ/ml IFN-α, and combinations of the above drugs at the specified concentrations. Medium and drugs were replaced every 24 hours. Triplicate wells were harvested at 24, 48, 72 or 96 hours post-treatment, in 200 μl/well of 1×ABI lysis buffer and stored at −80° C. until RNA extraction.
Therefore, the therapeutic potential of an IFN-free antiviral cocktail was also investigated, using ezetimibe in combination with other direct acting inhibitors of HCV amplification, specifically an inhibitor of the HCV NS3/4A protease (ITMN 5537; Intermune, Brisbane, Calif.). Huh7-1 cells were infected with HCV-JFH-1 and allowed to reach steady state levels of infection. Cells were monotreated with protease inhibitor (PI) or ezetimibe or IFN alone or treated with combinations of PI+ezetimibe or PI+IFN or IFN+ezetimibe or a combination of all three inhibitors. Samples were harvested at 24, 48, 72 or 96 hours post-treatment, the intracellular RNA was extracted and RT-qPCR performed to quantify HCV copies.
Thus, parallel cultures of chronically infected Huh7-1 cells were established and subsequently treated with ezetimibe, naringenin or IFN-α, either alone or in combination. Treatments were replenished every 24 hours. Triplicate cultures of each treatment condition were harvested at 24, 48, 72 or 96 hours post-treatment and intracellular HCV levels were quantified by RT-qPCR (FIG. 4A). […] Thus, no evidence of synergy was observed when IFN-α was combined with an egress inhibitor that only blocks cell-free spread.
As an alternative method of determining the therapeutic importance of inhibiting HCV cell-to-cell spread, an inhibitor to TfR1 was used. TfR1 has also been identified as another host cell factor that is involved in cell-free entry of HCV into cells, but is not required for cell-to-cell-mediated HCV entry. Thus, unlike ezetimibe which inhibits both cell-free and cell-to-cell HCV spread, the TfR1 inhibitor, ferristatin, only blocks cell-free virus spread. Again, chronically infected Huh7-1 cell cultures were established and treated with ezetimibe (30 μM), ferristatin (50 μM), or IFN-α (100 U/ml), either alone or in combination and treatments were replenished every 24 hours. Intracellular HCV copies were quantified from triplicate cultures by RT-qPCR at 24, 48, 72 or 96 hours post-treatment (FIG. 4B).
Huh7-1 cells were infected with HCV-JFH-1 and allowed to reach steady state levels of infection. Cells were monotreated with HCV polymerase inhibitor RG7128 (1 μM) or ezetimibe (30 μM) alone or treated with a combination of RG7128 and ezetimibe. […]

Structure (SMILES)	sg2a HCV RNA levels [1]	reduction of HCV levels (FIG. 5) (HCV-JFH-1; RG7128 1 μM, ezetimibe 30 μM, normalized to Mock)	reduction of HCV levels (FIG. 3) (HCV-JFH-1; ezetimibe 30 μM, PI 200 nM, IFN-α 100 U/ml)	decrease in intracellular HCV load (FIG. 4B) (HCV-JFH-1; ezetimibe 30 μM, ferristatin 50 μM, IFN-α 100 U/ml)	reduction of HCV copies (FIG. 4A) (HCV-JFH-1; ezetimibe, naringenin, IFN-α alone or in combination)	increase in intracellular HCV copies (FIG. 4A) (HCV-JFH-1; naringenin alone)
O=C1[C@H](CC[C@H](O)c2ccc(F)cc2)[C@@H](c2ccc(O)cc2)N1c1ccc(F)cc1 [ezetimibe, 1-(4-fluorophenyl)-(3R)-[3-(4-fluorophenyl)-(3S)-hydroxypropyl]-(45)-(4-hydroxyphenyl)-2-azetidinone]	did not inhibit HCV subgenomic RNA replication; also recorded: no significant reduction	did not reduce HCV levels	did not reduce HCV levels	neither ezetimibe nor ferristatin alone reduced intracellular HCV load	did not reduce HCV levels	
O=C1C[C@@H](c2ccc(O)cc2)Oc2cc(O)cc(O)c21 [naringenin]						about 50%
